Test results: patent publication US20250066370A1, “BICYCLIC TRIAZINE DERIVATIVES FOR THE TREATMENT OF CANCER” (DEUTSCHES KREBSFORSCHUNGSZENTRUM, priority 2022, published 2025)

Key:
EFM192A = experiment: Proliferation assay: cell line panel, EFM192A; type: cell-based; conditions: Homo sapiens, EFM-192A, 96 h, breast cancer, HER2 positive, 4 days, read-out: Result Category, IC50 (mean)
Excerpt: (§1) Human tumour cells were originally obtained from the American Type Culture Collection (ATCC), from Cell Line Services GmbH (CLS), from the Deutsche Sammlung von Mikroorganismen und Zellkulturen (DSMZ, German Collection of Microorganisms and Cell Cultures), from the Japanese Cancer Research Resources Bank (JCRB), from Public Health England, from the European Collection of Authenticated Cell Cultures (ECACC), from Asterand Biosciences, or from the National Cancer Institute (NCI). Cultivated tumour cells were plated at the density as indicated in Table 6 in 96-well multitier plates in 200 microL of their respective growth medium supplemented 10% fetal calf serum. […] Cell proliferation was determined by staining the cells with crystal violet: the cells were fixed by adding 20 microL/measuring point of an 11% glutaric aldehyde solution for 15 minutes at room temperature. […] The extinction was determined by photometry at a wavelength of 595 nm. The change of cell number, in percent, was calculated by normalization of the measured values to the extinction values of the zero-point plate (=0%) and the extinction of the untreated (0 μM) cells (=100%). […]

NCI-H1299 = experiment: Proliferation assay: cell line panel, NCI-H1299; type: cell-based; conditions: Homo sapiens, 96 h, lung cancer, non-small cell, 4 days, read-out: Result Category, IC50 (mean)
Excerpt: as §1

BT474 = experiment: Proliferation assay: cell line panel, BT474; type: cell-based; conditions: Homo sapiens, BT-474, 96 h, breast cancer, HER2 positive, 4 days, read-out: Result Category, IC50 (mean)
Excerpt: as §1

COV318 = experiment: Proliferation assay: cell line panel, COV318; type: cell-based; conditions: Homo sapiens, 96 h, ovarian cancer, 4 days, read-out: Result Category, IC50 (mean)
Excerpt: as §1

HCC1806 = experiment: Proliferation assay: cell line panel, HCC1806; type: cell-based; conditions: Homo sapiens, 96 h, breast cancer, triple-negative, 4 days, read-out: Result Category, IC50 (mean)
Excerpt: as §1

CAL-120 = experiment: Proliferation assay: cell line panel, CAL-120; type: cell-based; conditions: Homo sapiens, 96 h, breast cancer, triple-negative, 4 days, read-out: Result Category, IC50 (mean)
Excerpt: as §1

AU565 = experiment: Proliferation assay: cell line panel, AU565; type: cell-based; conditions: Homo sapiens, 96 h, breast cancer, HER2 positive, 4 days, read-out: Result Category, IC50 (mean)
Excerpt: as §1

HT-144 = experiment: Proliferation assay: cell line panel, HT-144; type: cell-based; conditions: Homo sapiens, 96 h, melanoma, 4 days, read-out: Result Category, IC50 (mean)
Excerpt: as §1

MDA-MB-468 = experiment: Proliferation assay: cell line panel, MDA-MB-468; type: cell-based; conditions: Homo sapiens, 96 h, breast cancer, triple-negative, 4 days, read-out: Result Category, IC50 (mean)
Excerpt: as §1

MDA-MB-231 = experiment: Proliferation assay: cell line panel, MDA-MB-231; type: cell-based; conditions: Homo sapiens, 96 h, breast cancer, triple-negative, 4 days, read-out: Result Category, IC50 (mean)
Excerpt: as §1

HCC1419 = experiment: Proliferation assay: cell line panel, HCC1419; type: cell-based; conditions: Homo sapiens, 96 h, breast cancer, HER2 positive, 4 days, read-out: Result Category, IC50 (mean)
Excerpt: as §1

HCC1954 = experiment: Proliferation assay: cell line panel, HCC1954; type: cell-based; conditions: Homo sapiens, 96 h, breast cancer, HER2 positive, 4 days, read-out: Result Category, IC50 (mean)
Excerpt: as §1

MDA-MB-231-CDK12d-res = experiment: Proliferation assay CDK12 degrader resistant MDA-MB-231; type: cell-based, human; conditions: for IC50: Homo sapiens, 96 h, CDK12 degrader resistant MDA-MB-231 cells, 4 days, median, read-out: Prolif-MDA MB-231-CDK12d-res, IC50 - [mol/] (median); for Ratio (Prolif-MDA MB-231-CDK12d-res IC50 / Prolif-MDA MB-231 IC50): resistant versus parental MDA-MB-231 cells
Excerpt: CDK12-degrader resistant cells were generated by propagation of CAL-120 human breast adenocarcinoma cells (DSMZ ACC-459) and MDA-MB-231 human breast cancer cells (ATCC HTB-26) in presence of increasing concentrations of the CDK12 degrader compound example 4 from WO 2021/116178. Initial concentrations of example 4 were 2.0E-08 M for CAL-120 cells and 4.6E-08 M for MDA-MB-231 cells, corresponding to ca. 2-fold the IC50 of inhibition of the cells in an proliferation assay. After the treated cells recovered and proliferated again the concentration of compound example 4 was increased to 3-fold IC50.
To determine the inhibitory effect of test compounds on proliferation of CAL-120-CDK12d-res, MDA-MB-231-CDK12d-res the cells were plated at a density of 4,000 cells/well in a 96-well multitier plate in 200 microL of their respective growth medium supplemented 10% fetal calf serum. After 24 hours, the cells of one plate (zero-point plate) were stained with crystal violet (see below), while the medium of the other plates was supplemented with the test substances in various concentrations (0 micromol/L, as well as in the range of 0.01-10 micromol/L; the final concentration of the solvent dimethyl sulfoxide was adjusted to 0.1%) using a Tecan HP D300 Digital Dispenser. The cells were incubated for 4 days in the presence of test substances. Cell proliferation was determined by staining the cells with crystal violet: the cells were fixed by adding 20 microL/measuring point of an 11% glutaric aldehyde solution for 15 minutes at room temperature. After three washing cycles of the fixed cells with water, the plates were dried at room temperature. The cells were stained by adding 100 microL/measuring point of a 0.1% crystal violet solution (pH 3.0). After three washing cycles of the stained cells with water, the plates were dried at room temperature. The dye was dissolved by adding 100 microL/measuring point of a 10% acetic acid solution. The extinction was determined by photometry at a wavelength of 595 nm. The change of cell number, in percent, was calculated by normalization of the measured values to the extinction values of the zero-point plate (=0%) and the extinction of the untreated (0 μM) cells (=100%). The IC50 values (inhibitory concentration at 50% of maximal effect) were determined by means of a 4 parameter fit.

JHH-7 = experiment: Proliferation assay: cell line panel, JHH-7; type: cell-based; conditions: Homo sapiens, JHH7, 96 h, liver cancer, 4 days, read-out: Result Category, IC50 (mean)
Excerpt: as §1

HCC1143 = experiment: Proliferation assay: cell line panel, HCC1143; type: cell-based; conditions: Homo sapiens, 96 h, breast cancer, triple-negative, 4 days, read-out: Result Category, IC50 (mean)
Excerpt: as §1

## FC(F)(F)Oc1ccc(-c2cnc(CNc3nc(N4CCOCC4)nn4c(C(F)(F)F)cnc34)[nH]2)cc1 [Example 8, 2-(morpholin-4-yl)-N-({5-[4-(trifluoromethoxy)phenyl]-1H-imidazol-2-yl}methyl)-7-(trifluoromethyl)imidazo[2,1-f][1,2,4]triazin-4-amine]
EFM192A
  IC50: ≥ 100 nM
NCI-H1299
  IC50: ≥ 100 nM
BT474
  IC50: 30 to 100 nM
COV318
  IC50: ≥ 100 nM
HCC1806
  IC50: 30 to 100 nM
CAL-120
  IC50: 30 to 100 nM
AU565
  IC50: ≤ 30 nM
HT-144
  IC50: 30 to 100 nM
MDA-MB-468
  IC50: 30 to 100 nM
MDA-MB-231
  IC50: ≥ 100 nM
HCC1419
  IC50: 30 to 100 nM
HCC1954
  IC50: 30 to 100 nM
MDA-MB-231-CDK12d-res
  IC50: 178 nM
  Ratio (Prolif-MDA MB-231-CDK12d-res IC50 / Prolif-MDA MB-231 IC50): 1.6
JHH-7
  IC50: 30 to 100 nM
HCC1143
  IC50: ≥ 100 nM

## FC(F)(F)c1ccc(-c2nnc(CNc3nc(N4CCOCC4)nn4c(C(F)(F)F)cnc34)[nH]2)cn1 [Example 20, 2-(morpholin-4-yl)-7-(trifluoromethyl)-N-({5-[6-(trifluoromethyl)pyridin-3-yl]-4H-1,2,4-triazol-3-yl}methyl)imidazo[2,1-f][1,2,4]triazin-4-amine]
MDA-MB-231-CDK12d-res
  IC50: 155 nM
  Ratio (Prolif-MDA MB-231-CDK12d-res IC50 / Prolif-MDA MB-231 IC50): 2.9

## FC(F)(F)Oc1ccc(-c2nnc(CNc3nc(N4CCOCC4)nn4c(C(F)(F)F)cnc34)[nH]2)cn1 [Example 19, 2-(morpholin-4-yl)-N-({5-[6-(trifluoromethoxy)pyridin-3-yl]-4H-1,2,4-triazol-3-yl}methyl)-7-(trifluoromethyl)imidazo[2,1-f][1,2,4]triazin-4-amine]
MDA-MB-231-CDK12d-res
  IC50: 103 nM
  Ratio (Prolif-MDA MB-231-CDK12d-res IC50 / Prolif-MDA MB-231 IC50): 2.7

## COc1ccc(-c2nnc(CNc3nc(N4CCOCC4)nn4c(C(F)(F)F)cnc34)[nH]2)cn1 [Example 18, N-{[5-(6-methoxypyridin-3-yl)-4H-1,2,4-triazol-3-yl]methyl}-2-(morpholin-4-yl)-7-(trifluoromethyl)imidazo[2,1-f][1,2,4]triazin-4-amine]
MDA-MB-231-CDK12d-res
  IC50: 288 nM
  Ratio (Prolif-MDA MB-231-CDK12d-res IC50 / Prolif-MDA MB-231 IC50): 4.0

## FC(F)(F)c1ccc(-c2cnc(CNc3nc(N4CCOCC4)nc4c(C(F)(F)F)cnn34)[nH]2)cn1 [Example 24, 2-(morpholin-4-yl)-8-(trifluoromethyl)-N-({5-[6-(trifluoromethyl)pyridin-3-yl]-1H-imidazol-2-yl}methyl)pyrazolo[1,5-a][1,3,5]triazin-4-amine]
MDA-MB-231-CDK12d-res
  IC50: 62.6 nM
  Ratio (Prolif-MDA MB-231-CDK12d-res IC50 / Prolif-MDA MB-231 IC50): 2.9

## FC(F)(F)c1ccc(-c2cnc(CNc3nc(N4CCOCC4)nc4c(C(F)(F)F)cnn34)[nH]2)cc1 [Example 9, 2-(morpholin-4-yl)-8-(trifluoromethyl)-N-({5-[4-(trifluoromethyl)phenyl]-1H-imidazol-2-yl}methyl)pyrazolo[1,5-a][1,3,5]triazin-4-amine]
MDA-MB-231-CDK12d-res
  IC50: 150 nM
  Ratio (Prolif-MDA MB-231-CDK12d-res IC50 / Prolif-MDA MB-231 IC50): 0.8

## FC(F)(F)c1ccc(-c2cnc(CNc3nc(N4CCOCC4)nn4c(C(F)(F)F)cnc34)[nH]2)cc1 [Example 7, 2-(morpholin-4-yl)-7-(trifluoromethyl)-N-({5-[4-(trifluoromethyl)phenyl]-1H-imidazol-2-yl}methyl)imidazo[2,1-f][1,2,4]triazin-4-amine]
EFM192A
  IC50: ≥ 100 nM
NCI-H1299
  IC50: ≥ 100 nM
BT474
  IC50: 30 to 100 nM
COV318
  IC50: ≥ 100 nM
HCC1806
  IC50: ≥ 100 nM
CAL-120
  IC50: ≥ 100 nM
AU565
  IC50: 30 to 100 nM
HT-144
  IC50: 30 to 100 nM
MDA-MB-468
  IC50: 30 to 100 nM
MDA-MB-231
  IC50: 30 to 100 nM
HCC1419
  IC50: 30 to 100 nM
HCC1954
  IC50: 30 to 100 nM
MDA-MB-231-CDK12d-res
  IC50: 156 nM
  Ratio (Prolif-MDA MB-231-CDK12d-res IC50 / Prolif-MDA MB-231 IC50): 1.7
JHH-7
  IC50: ≥ 100 nM
HCC1143
  IC50: ≥ 100 nM

## FC(F)(F)c1ccc(-c2cnc(CNc3nc(N4CCOCC4)nn4c(C(F)(F)F)cnc34)[nH]2)cn1 [Example 12, 2-(morpholin-4-yl)-7-(trifluoromethyl)-N-({5-[6-(trifluoromethyl)pyridin-3-yl]-1H-imidazol-2-yl}methyl)imidazo[2,1-f][1,2,4]triazin-4-amine]
MDA-MB-231-CDK12d-res
  IC50: 31 nM
  Ratio (Prolif-MDA MB-231-CDK12d-res IC50 / Prolif-MDA MB-231 IC50): 1.4

## FC(F)(F)Oc1ccc(-c2cnc(CNc3nc(N4CCOCC4)nc4c(C(F)(F)F)cnn34)[nH]2)cc1 [Example 10, 2-(morpholin-4-yl)-N-({5-[4-(trifluoromethoxy)phenyl]-1H-imidazol-2-yl}methyl)-8-(trifluoromethyl)pyrazolo[1,5-a][1,3,5]triazin-4-amine]
MDA-MB-231-CDK12d-res
  IC50: 156 nM
  Ratio (Prolif-MDA MB-231-CDK12d-res IC50 / Prolif-MDA MB-231 IC50): 1.3
